How the values were obtained:
Type in all cases: physicochemical
[1] = Solubility/miscibility of liquid form with hexane
Protocol: In such systems, suitable gases are ones that have a solubility/miscibility of their liquid forms with hexane, which is a model for the hydrophobic region of surfactants, of greater than 10% mole/mole at 37° C. For gases with a boiling point below 37° C., e.g. butane and perfluorobutane, this measurement must be carried out at elevated pressure. The adsorbing gas should be present in the bubble gas phase at a concentration of more than 2% by mole fraction of the gas mixture and preferably at about 5%, 10%, 25%, 50%, or 100%. The use of fluorinated surfactants with fluorinated gases is preferred. The liquid phase of the adsorbing gas should be relatively insoluble in water, less than 1% wt./wt. solubility/miscibility.

Solubility in water = experiment: Solubility in water
Source text: (§1) In order to stabilize microbubbles in this fashion and provide desirable harmonic characteristics, the osmotic agent is preferably present in the gas phase of the bubble at a mole fraction concentration of greater than approximately 2%, and more preferably at about 5%, 10%, 25%, 50%, or 100%. The vapor inside the bubble is preferably near saturation under the conditions of examination, preferably at least about 50%, 75% or 100% of the saturation concentration. Thus, for microbubbles used for imaging in a human, the liquid phase of the vapor in the bubble must have a vapor pressure at 37° C. greater than 2% of the pressure inside the bubble (one atmosphere plus the blood pressure of the human being examined plus the pressure caused by the surface tension of the bubble, the LaPlace pressure). This total pressure for 3 micron bubbles could reach 1.5 bar and thus requires the liquid phase of the vapor in the bubble to have a vapor pressure at 37° C. greater than approximately 23 torr. The liquid phase of the vapor should also have a low solubility in water, preferably less than 1% wt./wt.
In such systems, suitable gases are ones that have a solubility/miscibility of their liquid forms with hexane, which is a model for the hydrophobic region of surfactants, of greater than 10% mole/mole at 37° C. […]

Vapor pressure at 37° C. = experiment: Vapor pressure at 37° C.
Source text: as §1

Solubility in water and hexane versus criteria for adsorption in surfactant layer [1] | Solubility in hexane [1] | Water solubility (Solubility in water) | Vapor pressure (Vapor pressure at 37° C.) | Compound
meet the criteria above | – | – | – | FC(F)(F)C(F)(F)C(F)(F)C(F)(F)C(F)(F)F [perfluoropentane]
– | greater than 10 % mole/mole | less than 1 % wt./wt. | – | FC(F)(F)C(F)(F)C(F)(F)C(F)(F)F [perfluorobutane]
– | – | less than 1 % wt./wt. | over 23 torr | FC(F)(F)C(F)(F)C(F)(F)C(F)(F)C(F)(F)C(F)(F)F [perfluorohexane]
